Test results published in US20210205341A1, “COMPOSITIONS COMPRISING HUMAN MILK OLIGOSACCHARIDES FOR USE IN INFANTS OR YOUNG CHILDREN TO PREVENT OR TREAT A HEALTH DISORDER BY INCREASING GLP-1 SECRETION” (NESTEC S.A., priority 2016, published 2021).

How the values were obtained:
GLP-1 secretion = assay: GLP-1 plasma concentration in IUGR rats fed HMO-supplemented regimen; assay type: in vivo, rat
Excerpt: A wide group of pregnant female rats were bought from Charles River laboratories. They were submitted to food restriction of 60% during the last 10 days of gestation.
Immediately after birth (d=1), the born rat pups—subjects of the experiment—were split into several groups: • IUGR rats (control) (n=20) • IUGR rats+HMO (test groups): During the experiment, they were reared by their mothers for 21 days and supplemented with HMOs (2FL or LNnT). At weaning, they were fed a diet supplemented with the same HMOs, see details below. There were 2 different groups: • IUGR rats+2FL (n=10) • IUGR rats+LNnT (n=10)
IUGR (intrauterine growth restricted) rats were chosen as control model since they have a higher appetite to compensate their growth retardation, and therefore they may not eat in a healthy way with standard diets (e.g. they may have a higher total weight and/or adipose mass increase over their lean mass increase) which may lead to the development and programming for future health conditions including later in life obesity or future related comorbidities like diabetes.
All rat pups were fed from birth (d=1) up to 57 days (d=57) based on the following protocol: • day 1-day 6: all groups of rats were nursed by dam (mothers' milk only) • day 7-day 21: all rats were nursed by dam (mothers' milk only). But in the test groups, 3 g/kg body weight of a HMO were also administered by gavage: 2FL: 3 g/kg body weight, for the group IUGR rats+2FL LNnT: 3 g/kg body weight, for the group IUGR rats+LNnT • day 22-day 57: rats were separated from their mothers and they had the following regimen: • IUGR rats (control): fed with a control diet (composition detailed in table 2), no HMO supplementation
IUGR rats+HMO (test groups): fed with the same diet but supplemented with 4.5 wt % of a HMO (maltodextrin in the total control diet was replaced by the respective tested HMO):
4.5 wt % of 2FL for the group IUGR rats+2FL
4.5 wt % of LNnT for the group IUGR rats+LNnT
GLP-1 secretion in the rats was assessed by determination of its circulating concentration in plasma.

NCI-H716 cells = assay: Calcium assay in NCI-H716 cells (fluorescent calcium sensitive dye); assay type: cell-based, human; details: for significance of increase in fluorescence ratio: 5 mg/mL, 10 mg/mL and 20 mg/mL, p<0.05 vs negative control, two-sided t-test; for concentration dependence of calcium response: 1-20 mg/mL; for fluorescence ratio (intracellular calcium response): all tested concentrations: 1, 5, 10 and 20 mg/mL, vs buffer negative control
Excerpt: NCI-H716 is a cell line derived from human L-cells, the enteroendocrine cells that secrete GLP-1, and it is often used as a model of GLP-1 secretion. Unstimulated NCI-H716 cells secrete a basal level of GLP-1 and activation of the cells leads to dose-dependent increase in GLP-1 secretion. Activation of the NCI-H716 cells and subsequent release of GLP-1 can be triggered by nutrients such as palmitic acid, oleic acid, and meat hydrolysate, Gastrin Releasing Peptide (GRP), the cholinergic molecule Carbachol, bitter compounds such as denatonium, ginsenosides and other molecules.
Activation of NCI-H716 cells by ionomycin, GRP, denatonium, or ginsenosides leads to increased intracellular calcium. Elevation of intracellular calcium is therefore a marker of cell activation and in NCI-H716 cells it could be considered as an indicator of GLP-1 release.
A calcium assay was used to determine if NCI-H716 cells respond to human milk oligosaccharides (sialylated oligosaccharides 3SL and 6SL) or components/precursors thereof (lactose and sialic acid). In this assay, cultured NCI-H716 cells were loaded with a fluorescent calcium sensitive dye then stimulated with the HMOs. The response to the stimulus was measured by change in fluorescence ratio in consequence of intracellular calcium increase. The tested HMOs were 3′-sialyllactose (3SL) and 6′-sialyllactose (6SL). They were tested individually.
GRP (Gastrin Releasing Peptide): positive control
Tested HMOs concentrations: 1 mg/mL, 5 mg/mL, 10 mg/mL and 20 mg/mL
Tested lactose and sialic acid concentrations: 5.5 mg/mL and 4.72 mg/mL respectively (correspond to the amounts contained in 10 mg/mL of 3SL, in order to make a suitable comparison with 10 mg/mL of 3SL)

[1] = d=57, 3 g/kg by gavage day 7-21, then diet with 4.5 wt % HMO day 22-57, FIG. 1A partial results
[2] = d=57, 3 g/kg by gavage day 7-21, then diet with 4.5 wt % HMO day 22-57, FIG. 1B final results

Molecule | GLP-1 plasma concentration increase in comparison with the control group (GLP-1 secretion; [1]) [%] | GLP-1 plasma concentration increase in comparison with the control group (GLP-1 secretion; [2]) [%] | significance of increase in fluorescence ratio (NCI-H716 cells) | concentration dependence of calcium response (NCI-H716 cells) | fluorescence ratio (intracellular calcium response) (NCI-H716 cells) | other results
2′-fucosyllactose [2FL] | 200 | 164 |  |  |  | 
CC(=O)N[C@H]1[C@H]([C@H](O)[C@H](O)CO)O[C@@](OC[C@H]2O[C@@H](O[C@H]3[C@H](O)[C@@H](O)C(O)O[C@@H]3CO)[C@H](O)[C@@H](O)[C@H]2O)(C(=O)O)C[C@@H]1O (stereo partly drawn) [6SL, (6R)-5-Acetamido-3,5-dideoxy-6-[(1R,2R)-1,2,3-trihydroxypropyl]-β-L-threo-hex-2-ulopyranonosyl-(2->6)-β-D-galactopyranosyl-(1->4)-D-glucopyranose] |  |  | significant | clear concentration dependent calcium response | enhanced | 
CC(=O)N[C@H]1[C@H](O[C@H]2[C@@H](O)[C@@H](CO)O[C@@H](O[C@H]3[C@H](O)[C@@H](O)C(O)O[C@@H]3CO)[C@@H]2O)O[C@H](CO)[C@@H](O[C@@H]2O[C@H](CO)[C@H](O)[C@H](O)[C@H]2O)[C@@H]1O (mixture of isomers) [LNnT, lacto-N-neotetraose] | 43 | 13 |  |  |  | 
OC[C@H]1O[C@@H](O[C@H]2[C@H](O)[C@@H](O)C(O)O[C@@H]2CO)[C@H](O)[C@@H](O)[C@H]1O (stereo partly drawn) [Lactose, reference compound] |  |  |  |  |  | activation of NCI-H716 cells (calcium response) (NCI-H716 cells; 5.5 mg/mL (amount contained in 10 mg/mL 3SL)): did not activate the cells
CC(=O)N[C@H]1[C@H]([C@H](O)[C@H](O)CO)OC(O)(C(=O)O)C[C@@H]1O (stereo partly drawn) [sialic acid, N-acetylneuraminic acid, reference compound] |  |  |  |  |  | activation of NCI-H716 cells (calcium response) (NCI-H716 cells; 4.72 mg/mL (amount contained in 10 mg/mL 3SL)): did not activate the cells
CC(=O)N[C@H]1[C@H]([C@H](O)[C@H](O)CO)O[C@@](O[C@H]2[C@@H](O)[C@@H](CO)O[C@@H](O[C@H]3[C@H](O)[C@@H](O)C(O)O[C@@H]3CO)[C@@H]2O)(C(=O)O)C[C@@H]1O (stereo partly drawn) [3SL, (6R)-5-Acetamido-3,5-dideoxy-6-[(1R,2R)-1,2,3-trihydroxypropyl]-β-L-threo-hex-2-ulopyranonosyl-(2->3)-β-D-galactopyranosyl-(1->4)-D-glucopyranose] |  |  | significant | clear concentration dependent calcium response | enhanced | 
